{
  "source": "paper PMC10666548",
  "about": "“Identification of the bacterial metabolite aerugine as potential trigger of human dopaminergic neurodegeneration” (Environment international, 2023)",
  "key": {"[1]": {"test": "Cytotoxicity to proliferating (d0) LUHMES cells, calcein-AM & H-33342 imaging", "type": "cell-based", "details": "human, proliferating LUHMES d0, 24 h exposure, read-out: EC50 (half-maximal cytotoxic potency), cell viability", "procedure": "LUHMES cells were cultivated as described previously ([Krug et al., 2013]; [Schildknecht et al., 2013]; [Scholz et al., 2011]). In brief, cells were grown in standard cell culture flasks pre-coated with 50 μg/ml PLO and 1 μg/ml fibronectin in water for at least 3 h at 37 °C. The maintenance culture was kept in proliferation medium consisting of advanced DMEM/F12 with 2 mM L-glutamine, 1x N2-supplement, and 40 ng/ml FGF-2. The cells were incubated at 37 °C with 5% CO2 and passaged trice a week when reaching 75–90% confluence. They were used up to passage 18. […]\n(§1) Neurite area (NA) and viability (V) were assessed as described previously ([Stiegler et al., 2011]). […] Image acquisition was performed using an Array-Scan VTI HCS Reader (Cellomics, PA, USA) equipped with a Hamamatsu ORCA-ER camera. […]\nNuclei were identified in channel 1 depending on intensity, area, size and shape. […] The NA was automatically calculated by excluding the VCSAs from the VCSs. […]\nFig. 3. […] The cell viability was assessed 24 h later by calcein-AM & H-33342 staining and high content imaging. […] The overall cell viability was assessed by measuring resazurin reduction in technical triplicates. […] The cell viability was assessed 24 h later by calcein-AM & H-33342 staining and high content imaging. […]"}, "d3 LUHMES cells": {"test_system": "d3 LUHMES cells", "test": "Aerugine toxicity in glucose vs galactose medium", "type": "cell-based, human", "procedure": "Ückert et al. (2023): Identification of the bacterial metabolite aerugine as potential trigger of human dopaminergic […]\nA The effect of aerugine on respiratory function was analysed in d3 LUHMES cells. The oxygen consumption rate of the individual technical replicates is shown. The oxygen consumption rate is normalised to the last measurement before injection. The injections of aerugine, control and the subsequent assay tool compounds are indicated (FCCP: 1.5 µM; oligomycin: 1 µM; rotenone + antimycin A: 0.5 µM +0.5 µM). B Several parameters were derived from the oxygen consumption rate. The data is presented as means ± SD of four replicates (obtained from one cell batch). Statistical analysis was performed using a one-way ANOVA with Dunnett‘s multiple comparisons test. * = p < 0.0001. C Delp et al. (2019) determined the dependence of LUHMES cells on glycolysis and their mitochondria for ATP production in two different media conditions. […]\nmitochondrial metabolism in producing ATP in the two different media. D Aerugine toxicity was assessed in d3 LUHMES cells cultured in glucose and in galactose medium. Cell viability was assessed by calcein-AM & H-33342 staining and automated fluorescence microscopy. Double positive cells were counted as viable, H-33342 mono-positive cells were counted as dead."}, "[2]": {"test_system": "peripheral nervous system cells (iPSC-derived peripheral neurons)", "test": "iPSC-derived neuron viability, calcein-AM & H-33342 imaging", "type": "cell-based, human", "details": "24 h, concentrations up to 100 μM", "procedure": "The human iPSC (Sigma iPSC0028 (EPITHELIAL-1, #IPSC0028) were maintained and differentiated towards immature dorsal root ganglia neurons according to [Hoelting et al. (2016)] ([Hoelting et al., 2016]). Briefly, a total of 90,000 cells/cm^2 were seeded on Matrigel. The differentiation was initiated with neural differentiation medium (KSR-S; Dulbecco’s modified Eagle’s medium [DMEM/F12] containing 15% knockout serum replacement, 1 × Glutamax, 1 × nonessential amino acids, and 50 μM ß-mercaptoethanol) supplemented with 17.5 ng/ml noggin, 10 μM SB-431642 from day of stem cell differentiation (DoD) DoD0 to DoD5. Starting on DoD2 CHIR99021 (1.5 μM), SU5402 (5 μM) and DAPT (5 μM) were added. […]\nThe assays were performed as described previously ([Hoelting et al., 2016]; [Klima et al., 2021]; [Krug et al., 2013]). […] 24 h after treatment the Calcein/Hoechst readout was performed.\nas §1"}},
  "data": [
    {"smiles": "OCC1CSC(c2ccccc2O)=N1", "note": "(stereo not drawn) [aerugine, 2-[4-(hydroxymethyl)-4,5-dihydro-1,3-thiazol-2-yl]phenol]", "values": [
      {"measurement": "EC50 at 24 h", "setting": "[1]", "value": "13 ± 0.2", "unit": "µM"},
      {"measurement": "toxicity in galactose vs glucose medium", "setting": "d3 LUHMES cells", "value": "no increased aerugine toxicity was observed"},
      {"measurement": "effect on cell viability", "setting": "[2]", "value": "no effect"}
    ]}
  ]
}
